# Test results: ChEMBL document CHEMBL4219190, “Studies on synthesis of novel pyrido[2,3-d]pyrimidine derivatives, evaluation of their antimicrobial activity and molecular docking” (Bioorg Med Chem Lett, 2018)
# Active and inactive are the calls of the source. The calls are words filed in the database; no cut-off is given here.
# What was measured:
# Raoultella planticola [1] = test: Antibiofilm activity against Klebsiella planticola MTCC 530 after 24 hrs by crystal violet staining-based assay; assay type: functional, organism-based; settings: Klebsiella planticola, MTCC 530, 24 h; read-out: IC50
# Candida albicans [2] = test: Fungicidal activity against Candida albicans MTCC 7315 incubated for 24 hrs followed by transfer of microbial suspension to Sabouraud dextrose agar plates and measured after 24 hrs post transfer; assay type: functional; settings: MTCC 7315, 24 h
# Escherichia coli [3] = test: Antibacterial activity against Escherichia coli MTCC 739 after 24 hrs by well diffusion method; assay type: functional; settings: MTCC 739, 24 h
# Candida albicans [4] = test: Fungicidal activity against Candida albicans MTCC 183 incubated for 24 hrs followed by transfer of microbial suspension to Sabouraud dextrose agar plates and measured after 24 hrs post transfer; assay type: functional; settings: MTCC 183, 24 h
# Candida parapsilosis [5] = test: Fungicidal activity against Candida parapsilosis MTCC 1744 incubated for 24 hrs followed by transfer of microbial suspension to Sabouraud dextrose agar plates and measured after 24 hrs post transfer; assay type: functional; settings: Lodderomyces parapsilosis, MTCC 1744, 24 h
# Candida albicans [6] = test: Fungicidal activity against Candida albicans MTCC 3018 incubated for 24 hrs followed by transfer of microbial suspension to Sabouraud dextrose agar plates and measured after 24 hrs post transfer; assay type: functional; settings: MTCC 3018, 24 h
# Candida albicans [7] = test: Fungicidal activity against Candida albicans MTCC 3958 incubated for 24 hrs followed by transfer of microbial suspension to Sabouraud dextrose agar plates and measured after 24 hrs post transfer; assay type: functional; settings: MTCC 3958, 24 h
# Pichia sporocuriosa [8] = test: Fungicidal activity against Issatchenkia hanoiensis MTCC 4755 incubated for 24 hrs followed by transfer of microbial suspension to Sabouraud dextrose agar plates and measured after 24 hrs post transfer; assay type: functional; settings: MTCC 4755, 24 h
# Candida albicans [9] = test: Fungicidal activity against Candida albicans MTCC 3017 incubated for 24 hrs followed by transfer of microbial suspension to Sabouraud dextrose agar plates and measured after 24 hrs post transfer; assay type: functional; settings: MTCC 3017, 24 h
# Candida albicans [10] = test: Fungicidal activity against Candida albicans MTCC 4748 incubated for 24 hrs followed by transfer of microbial suspension to Sabouraud dextrose agar plates and measured after 24 hrs post transfer; assay type: functional; settings: MTCC 4748, 24 h
# Raoultella planticola [11] = test: Antibacterial activity against Klebsiella planticola MTCC 530 after 24 hrs by well diffusion method; assay type: functional; settings: MTCC 530, 24 h
# Staphylococcus aureus [12] = test: Antibiofilm activity against Staphylococcus aureus MTCC 96 after 24 hrs by crystal violet staining-based assay; assay type: functional, organism-based; settings: Staphylococcus aureus, MTCC 96, 24 h; read-out: IC50
# Pichia sporocuriosa [13] = test: Antifungal activity against Issatchenkia hanoiensis MTCC 4755 after 24 hrs by well diffusion method; assay type: functional; settings: MTCC 4755, 24 h
# Candida albicans [14] = test: Antifungal activity against Candida albicans MTCC 3958 after 24 hrs by well diffusion method; assay type: functional; settings: MTCC 3958, 24 h
# Candida albicans [15] = test: Antifungal activity against Candida albicans MTCC 183 after 24 hrs by well diffusion method; assay type: functional; settings: MTCC 183, 24 h
# Nakaseomyces glabratus [16] = test: Fungicidal activity against Candida glabrata MTCC 3019 incubated for 24 hrs followed by transfer of microbial suspension to Sabouraud dextrose agar plates and measured after 24 hrs post transfer; assay type: functional
# Micrococcus luteus [17] = test: Antibacterial activity against Micrococcus luteus MTCC 2470 after 24 hrs by well diffusion method; assay type: functional; settings: MTCC 2470, 24 h
# Candida albicans [18] = test: Antifungal activity against Candida albicans MTCC 3018 after 24 hrs by well diffusion method; assay type: functional; settings: MTCC 3018, 24 h
# Micrococcus luteus [19] = test: Bactericidal activity against Micrococcus luteus MTCC 2470 incubated for 24 hrs followed by transfer of microbial suspension to Mueller Hinton agar plates and measured after 24 hrs post transfer; assay type: functional; settings: MTCC 2470, 24 h
# Candida parapsilosis [20] = test: Antifungal activity against Candida parapsilosis MTCC 1744 after 24 hrs by well diffusion method; assay type: functional; settings: MTCC 1744, 24 h
# Raoultella planticola [21] = test: Bactericidal activity against Klebsiella planticola MTCC 530 incubated for 24 hrs followed by transfer of microbial suspension to Mueller Hinton agar plates and measured after 24 hrs post transfer; assay type: functional; settings: MTCC 530, 24 h
# Staphylococcus aureus [22] = test: Bactericidal activity against Staphylococcus aureus MTCC 96 incubated for 24 hrs followed by transfer of microbial suspension to Mueller Hinton agar plates and measured after 24 hrs post transfer; assay type: functional; settings: MTCC 96, 24 h
# Candida albicans [23] = test: Antifungal activity against Candida albicans MTCC 7315 after 24 hrs by well diffusion method; assay type: functional; settings: MTCC 7315, 24 h
# Staphylococcus aureus [24] = test: Bactericidal activity against Staphylococcus aureus MLS16 MTCC 2940 incubated for 24 hrs followed by transfer of microbial suspension to Mueller Hinton agar plates and measured after 24 hrs post transfer; assay type: functional; settings: MLS16 MTCC 2940, 24 h
# Bacillus subtilis [25] = test: Bactericidal activity against Bacillus subtilis MTCC 121 incubated for 24 hrs followed by transfer of microbial suspension to Mueller Hinton agar plates and measured after 24 hrs post transfer; assay type: functional; settings: MTCC 121, 24 h
# Escherichia coli [26] = test: Bactericidal activity against Escherichia coli MTCC 739 incubated for 24 hrs followed by transfer of microbial suspension to Mueller Hinton agar plates and measured after 24 hrs post transfer; assay type: functional; settings: MTCC 739, 24 h
# Candida albicans [27] = test: Fungicidal activity against Candida albicans MTCC 227 incubated for 24 hrs followed by transfer of microbial suspension to Sabouraud dextrose agar plates and measured after 24 hrs post transfer; assay type: functional; settings: MTCC 227, 24 h
# Candida albicans [28] = test: Fungicidal activity against Candida albicans MTCC 854 incubated for 24 hrs followed by transfer of microbial suspension to Sabouraud dextrose agar plates and measured after 24 hrs post transfer; assay type: functional; settings: MTCC 854, 24 h
# Pseudomonas aeruginosa [29] = test: Antibiofilm activity against Pseudomonas aeruginosa MTCC 2453 after 24 hrs by crystal violet staining-based assay; assay type: functional, organism-based; settings: Pseudomonas aeruginosa, MTCC 2453, 24 h; read-out: IC50
# Candida albicans [30] = test: Antifungal activity against Candida albicans MTCC 1637 after 24 hrs by well diffusion method; assay type: functional; settings: MTCC 1637, 24 h
# Bacillus subtilis [31] = test: Antibacterial activity against Bacillus subtilis MTCC 121 after 24 hrs by well diffusion method; assay type: functional; settings: MTCC 121, 24 h
# Bacillus subtilis [32] = test: Antibiofilm activity against Bacillus subtilis MTCC 121 after 24 hrs by crystal violet staining-based assay; assay type: functional, organism-based; settings: Bacillus subtilis, MTCC 121, 24 h; read-out: IC50
# Pichia kudriavzevii [33] = test: Antifungal activity against Candida krusei MTCC 3020 after 24 hrs by well diffusion method; assay type: functional
# Staphylococcus aureus [34] = test: Antibiofilm activity against Staphylococcus aureus MLS16 MTCC 2940 after 24 hrs by crystal violet staining-based assay; assay type: functional, organism-based; settings: Staphylococcus aureus, MLS16 MTCC 2940, 24 h; read-out: IC50
# [Candida] aaseri [35] = Fungicidal activity against Candida aaseri MTCC 1962 incubated for 24 hrs followed by transfer of microbial suspension to Sabouraud dextrose agar plates and measured after 24 hrs post transfer; assay type: functional; settings: Yamadazyma aaseri, MTCC 1962, 24 h
# Pseudomonas aeruginosa [36] = test: Antibacterial activity against Pseudomonas aeruginosa MTCC 2453 after 24 hrs by well diffusion method; assay type: functional; settings: MTCC 2453, 24 h
# Candida albicans [37] = test: Inhibition of ergosterol in Candida albicans MTCC 183 after 20 hrs by UV spectrophotometric method; assay type: functional, organism-based
# Candida albicans [38] = test: Antifungal activity against Candida albicans MTCC 3017 after 24 hrs by well diffusion method; assay type: functional; settings: MTCC 3017, 24 h
# Pseudomonas aeruginosa [39] = test: Bactericidal activity against Pseudomonas aeruginosa MTCC 2453 incubated for 24 hrs followed by transfer of microbial suspension to Mueller Hinton agar plates and measured after 24 hrs post transfer; assay type: functional; settings: MTCC 2453, 24 h
# Pichia kudriavzevii [40] = test: Fungicidal activity against Candida krusei MTCC 3020 incubated for 24 hrs followed by transfer of microbial suspension to Sabouraud dextrose agar plates and measured after 24 hrs post transfer; assay type: functional
# Candida albicans [41] = test: Antifungal activity against Candida albicans MTCC 227 after 24 hrs by well diffusion method; assay type: functional; settings: MTCC 227, 24 h
# Candida albicans [42] = test: Antifungal activity against Candida albicans MTCC 4748 after 24 hrs by well diffusion method; assay type: functional; settings: MTCC 4748, 24 h
# Candida albicans [43] = test: Antifungal activity against Candida albicans MTCC 854 after 24 hrs by well diffusion method; assay type: functional; settings: MTCC 854, 24 h
# Nakaseomyces glabratus [44] = test: Antifungal activity against Candida glabrata MTCC 3019 after 24 hrs by well diffusion method; assay type: functional
# Candida albicans [45] = test: Fungicidal activity against Candida albicans MTCC 1637 incubated for 24 hrs followed by transfer of microbial suspension to Sabouraud dextrose agar plates and measured after 24 hrs post transfer; assay type: functional; settings: MTCC 1637, 24 h
# Staphylococcus aureus [46] = test: Antibacterial activity against Staphylococcus aureus MLS16 MTCC 2940 after 24 hrs by well diffusion method; assay type: functional; settings: MLS16 MTCC 2940, 24 h
# [Candida] aaseri [47] = Antifungal activity against Candida aaseri MTCC 1962 after 24 hrs by well diffusion method; assay type: functional; settings: Yamadazyma aaseri, MTCC 1962, 24 h
# Staphylococcus aureus [48] = test: Antibacterial activity against Staphylococcus aureus MTCC 96 after 24 hrs by well diffusion method; assay type: functional; settings: MTCC 96, 24 h
structure (smiles),measurement,setting,value
CN1CCN(C(=O)c2nc(-c3ccccc3)c3c(C(F)(F)F)cc(-c4ccccc4)nc3n2)CC1,IC50,Raoultella planticola [1],21.6 µg/mL
same,MFC,Candida albicans [2],62.5 µg/mL
same,MIC,Escherichia coli [3],15.6 µg/mL
same,MFC,Candida albicans [4],3.9 µg/mL
same,MFC,Candida parapsilosis [5],62.5 µg/mL
same,MFC,Candida albicans [6],31.2 µg/mL
same,MFC,Candida albicans [7],15.6 µg/mL
same,MFC,Pichia sporocuriosa [8],31.2 µg/mL
same,MFC,Candida albicans [9],7.8 µg/mL
same,MFC,Candida albicans [10],31.2 µg/mL
same,MIC,Raoultella planticola [11],31.2 µg/mL
same,IC50,Staphylococcus aureus [12],5.4 µg/mL
same,MIC,Pichia sporocuriosa [13],15.6 µg/mL
same,MIC,Candida albicans [14],7.8 µg/mL
same,MIC,Candida albicans [15],3.9 µg/mL
same,MFC,Nakaseomyces glabratus [16],inactive
same,MIC,Micrococcus luteus [17],15.6 µg/mL
same,MIC,Candida albicans [18],15.6 µg/mL
same,MBC,Micrococcus luteus [19],15.6 µg/mL
same,MIC,Candida parapsilosis [20],31.2 µg/mL
same,MBC,Raoultella planticola [21],62.4 µg/mL
same,MBC,Staphylococcus aureus [22],15.6 µg/mL
same,MIC,Candida albicans [23],31.2 µg/mL
same,MBC,Staphylococcus aureus [24],31.2 µg/mL
same,MBC,Bacillus subtilis [25],31.2 µg/mL
same,MBC,Escherichia coli [26],31.2 µg/mL
same,MFC,Candida albicans [27],7.8 µg/mL
same,MFC,Candida albicans [28],15.6 µg/mL
same,IC50,Pseudomonas aeruginosa [29],21.6 µg/mL
same,MIC,Candida albicans [30],7.8 µg/mL
same,MIC,Bacillus subtilis [31],15.6 µg/mL
same,IC50,Bacillus subtilis [32],10.8 µg/mL
same,MIC,Pichia kudriavzevii [33],inactive
same,IC50,Staphylococcus aureus [34],10.8 µg/mL
same,MFC,[Candida] aaseri [35],15.6 µg/mL
same,MIC,Pseudomonas aeruginosa [36],31.2 µg/mL
same,inhibition,Candida albicans [37],Dose-dependent effect
same,MIC,Candida albicans [38],3.9 µg/mL
same,MBC,Pseudomonas aeruginosa [39],62.4 µg/mL
same,MFC,Pichia kudriavzevii [40],inactive
same,MIC,Candida albicans [41],3.9 µg/mL
same,MIC,Candida albicans [42],15.6 µg/mL
same,MIC,Candida albicans [43],7.8 µg/mL
same,MIC,Nakaseomyces glabratus [44],inactive
same,MFC,Candida albicans [45],15.6 µg/mL
same,MIC,Staphylococcus aureus [46],15.6 µg/mL
same,MIC,[Candida] aaseri [47],7.8 µg/mL
same,MIC,Staphylococcus aureus [48],7.8 µg/mL
Clc1ccc(COC(Cn2ccnc2)c2ccc(Cl)cc2Cl)c(Cl)c1 (configuration not stated) [MICONAZOLE],MFC,Candida albicans [2],15.6 µg/mL
same,MFC,Candida albicans [4],7.8 µg/mL
same,MFC,Candida parapsilosis [5],7.8 µg/mL
same,MFC,Candida albicans [6],15.6 µg/mL
same,MFC,Candida albicans [7],7.8 µg/mL
same,MFC,Pichia sporocuriosa [8],15.6 µg/mL
same,MFC,Candida albicans [9],7.8 µg/mL
same,MFC,Candida albicans [10],7.8 µg/mL
same,MIC,Pichia sporocuriosa [13],7.8 µg/mL
same,MIC,Candida albicans [14],7.8 µg/mL
same,MIC,Candida albicans [15],7.8 µg/mL
same,MFC,"Nakaseomyces glabratus [16]; MTCC 3019, 24 h",7.8 µg/mL
same,MIC,Candida albicans [18],7.8 µg/mL
same,MIC,Candida parapsilosis [20],7.8 µg/mL
same,MIC,Candida albicans [23],7.8 µg/mL
same,MFC,Candida albicans [27],7.8 µg/mL
same,MFC,Candida albicans [28],15.6 µg/mL
same,MIC,Candida albicans [30],7.8 µg/mL
same,MIC,"Pichia kudriavzevii [33]; MTCC 3020, 24 h",7.8 µg/mL
same,MFC,[Candida] aaseri [35],15.6 µg/mL
same,inhibition,Candida albicans [37],Dose-dependent effect
same,MIC,Candida albicans [38],7.8 µg/mL
same,MFC,"Pichia kudriavzevii [40]; MTCC 3020, 24 h",15.6 µg/mL
same,MIC,Candida albicans [41],7.8 µg/mL
same,MIC,Candida albicans [42],7.8 µg/mL
same,MIC,Candida albicans [43],7.8 µg/mL
same,MIC,"Nakaseomyces glabratus [44]; MTCC 3019, 24 h",7.8 µg/mL
same,MFC,Candida albicans [45],7.8 µg/mL
same,MIC,[Candida] aaseri [47],7.8 µg/mL
